Measurements from ChEMBL document CHEMBL1129895, “A novel series of matrix metalloproteinase inhibitors for the treatment of inflammatory disorders” (Bioorg Med Chem Lett, 1997).
Square brackets hold non-standard residues; d marks the D form. Peptide text beside a SMILES is read from it. * marks the point of attachment. Propionyl = CCC(=O)*; Mpa = O=C(O)CCS

Experiments:
[1] = target: T1, Matrix metalloproteinase-9 (Rattus norvegicus, UniProt P50282); assay: Compound was tested for its inhibitory activity against Matrix metalloprotease-9 (MMP-9) in adjuvant arthritic rat model of rheumatoid arthritis
Neutrophil collagenase = Neutrophil collagenase (Rattus norvegicus, UniProt O88766); assay: Compound was tested for its inhibitory activity against Matrix metalloprotease-8 (MMP-8) in adjuvant arthritic rat model of rheumatoid arthritis
[2] = target: T1, Matrix metalloproteinase-9; assay: Compound was tested for its inhibitory activity against Matrix metalloprotease-9 in adjuvant arthritic rat model of rheumatoid arthritis
Rattus norvegicus = assay: Inhibition of hind paw swelling was observed by the administration of compound at 40 mg/kg/day, perorally in adjuvant arthritic rat model of rheumatoid arthritis; assay type: functional; conditions: route oral

Neutrophil collagenase, sequence (O88766 whole entry): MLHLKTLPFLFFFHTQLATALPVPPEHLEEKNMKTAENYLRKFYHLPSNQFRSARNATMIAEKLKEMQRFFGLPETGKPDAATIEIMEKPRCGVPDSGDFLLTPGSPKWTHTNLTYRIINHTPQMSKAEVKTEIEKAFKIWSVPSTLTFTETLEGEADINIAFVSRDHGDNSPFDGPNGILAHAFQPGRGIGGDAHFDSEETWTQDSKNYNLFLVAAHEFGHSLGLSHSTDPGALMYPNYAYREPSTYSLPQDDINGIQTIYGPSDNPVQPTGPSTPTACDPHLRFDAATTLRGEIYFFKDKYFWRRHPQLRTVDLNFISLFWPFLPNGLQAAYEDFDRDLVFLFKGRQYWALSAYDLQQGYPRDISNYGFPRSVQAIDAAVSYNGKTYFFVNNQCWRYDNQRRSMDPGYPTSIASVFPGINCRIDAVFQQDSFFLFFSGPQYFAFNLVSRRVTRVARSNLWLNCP
T1 sequence (P50282 whole entry): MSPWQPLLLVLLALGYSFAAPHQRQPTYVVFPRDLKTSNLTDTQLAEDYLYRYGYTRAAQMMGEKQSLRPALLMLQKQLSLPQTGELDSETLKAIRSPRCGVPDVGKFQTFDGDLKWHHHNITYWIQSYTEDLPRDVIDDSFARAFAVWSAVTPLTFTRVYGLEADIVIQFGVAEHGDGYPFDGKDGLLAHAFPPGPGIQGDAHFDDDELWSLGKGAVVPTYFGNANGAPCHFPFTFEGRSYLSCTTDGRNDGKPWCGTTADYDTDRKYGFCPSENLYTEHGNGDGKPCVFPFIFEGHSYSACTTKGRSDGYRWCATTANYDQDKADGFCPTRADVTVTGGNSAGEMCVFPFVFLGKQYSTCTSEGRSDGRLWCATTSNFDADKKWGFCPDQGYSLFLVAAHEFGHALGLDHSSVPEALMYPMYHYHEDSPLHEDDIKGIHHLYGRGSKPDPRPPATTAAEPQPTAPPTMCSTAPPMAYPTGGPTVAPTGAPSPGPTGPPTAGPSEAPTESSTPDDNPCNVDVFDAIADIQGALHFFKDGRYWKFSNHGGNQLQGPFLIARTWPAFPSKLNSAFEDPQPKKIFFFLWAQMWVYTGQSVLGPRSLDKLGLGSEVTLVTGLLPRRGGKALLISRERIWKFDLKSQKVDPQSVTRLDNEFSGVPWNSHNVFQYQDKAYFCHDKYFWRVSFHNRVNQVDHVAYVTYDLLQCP

SMILES	IC50 [1] [nM]	IC50 (Neutrophil collagenase) [nM]	IC50 [2] [nM]	inhibition in vivo at 40 mg/kg/day (Rattus norvegicus) [%]
CNC(=O)[C@H](Cc1cscn1)NC(=O)[C@H](CC(C)C)NC(=O)CS	7	12		
CNC(=O)[C@H](Cc1ccccc1)NC(=O)[C@@H](NC(=O)CS)C(C)O (stereo partly specified)		4100	1700	
CNC(=O)[C@H](Cc1ccccc1)NC(=O)[C@H](CC(C)C)NC(=O)CSC		2600	4600	
CCC(=O)N[C@@H](CC(C)C)C(=O)N[C@@H](Cc1ccccc1)C(=O)NC (Propionyl-Leu-Phe-NHMe)		> 100000	30000	
CNC(=O)[C@H](Cc1ccccc1)NC(=O)[C@H](CC(C)C)NC(=O)CCS ([Mpa]-Leu-Phe-NHMe)		5100	9600	

More lines, main results first:

IC50 [1] [nM]	IC50 (Neutrophil collagenase) [nM]	IC50 [2] [nM]	SMILES	inhibition in vivo at 40 mg/kg/day (Rattus norvegicus) [%]
	6	13	CNC(=O)[C@H](Cc1ccccc1)NC(=O)[C@H](CSC)NC(=O)CS	
	480	350	CNC(=O)[C@H](Cc1ccccc1)NC(=O)[C@H](C[S+](C)[O-])NC(=O)CS (stereo partly specified)	
	50	90	CNC(=O)[C@H](Cc1ccccc1)NC(=O)[C@H](CC(C)C)NC(=O)CS	40
120	20		CNC(=O)[C@H](Cc1c[nH]c2ccccc12)NC(=O)[C@H](CSC)NC(=O)CS	
30	80		CNC(=O)[C@H](Cc1c[nH]c2ccccc12)NC(=O)[C@H](CC(C)C)NC(=O)CS	
